PubChem BioAssay AID1963856 (Molecular Pharmacology Branch, DTP, NCI, 2024)
Active and inactive are the calls of the source. The calls were made as follows: active = viability on the fitted dose curve at most 10% of control; inactive = the rest.

Test system: LG0567-F671-PDC KRAS tumor spheroid viability
Assay: Anticancer human tumor LG0567-F671-PDC patient-derived lung adenocarcinoma cell line growth inhibition [KRAS2]
Conditions: spheroids with HUVEC and MSC; for IC50: curve of first compound; for viability, T/C: stronger effect = lower value
How it was run: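 Combination screen of spheroid viability in tumor-cell co-cultures with endothelial (HUVEC) and mesenchymal stem cell stroma. Each agent was tested in half-log dilutions, topping at clinical Cmax or at 10 microM without a known Cmax.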

[1] = second compound 0.1 µM, first compound 0.000316 µM
[2] = second compound 0.1 µM, first compound 0.001 µM
[3] = second compound 0.1 µM, first compound 0.00316 µM
[4] = second compound 0.1 µM, first compound 0.01 µM
[5] = second compound 0.1 µM, first compound 0.0316 µM
[6] = second compound 0.1 µM, first compound 0.1 µM
[7] = second compound 0.316 µM, first compound 0.000316 µM
[8] = second compound 0.316 µM, first compound 0.001 µM
[9] = second compound 0.316 µM, first compound 0.00316 µM
[10] = second compound 0.316 µM, first compound 0.01 µM
[11] = second compound 0.316 µM, first compound 0.0316 µM
[12] = second compound 0.316 µM, first compound 0.1 µM
[13] = second compound 1 µM, first compound 0.000316 µM
[14] = second compound 1 µM, first compound 0.001 µM
[15] = second compound 1 µM, first compound 0.00316 µM
[16] = second compound 1 µM, first compound 0.01 µM
[17] = second compound 1 µM, first compound 0.0316 µM
[18] = second compound 1 µM, first compound 0.1 µM
[19] = second compound 3.16 µM, first compound 0.000316 µM
[20] = second compound 3.16 µM, first compound 0.001 µM
[21] = second compound 3.16 µM, first compound 0.00316 µM
[22] = second compound 3.16 µM, first compound 0.01 µM
[23] = second compound 3.16 µM, first compound 0.0316 µM
[24] = second compound 3.16 µM, first compound 0.1 µM
[25] = second compound 10 µM, first compound 0.000316 µM
[26] = second compound 10 µM, first compound 0.001 µM
[27] = second compound 10 µM, first compound 0.00316 µM
[28] = second compound 10 µM, first compound 0.01 µM
[29] = second compound 10 µM, first compound 0.0316 µM
[30] = second compound 10 µM, first compound 0.1 µM
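For IC50 in this document: drug exposure lasted seven days after spheroids formed for three days.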
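For viability, T/C in this document: drug exposure lasted seven days after spheroids formed for three days; 100% = DMSO vehicle control viability.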

SMILES: CN(C)C/C=C/C(=O)Nc1cc2c(Nc3ccc(F)c(Cl)c3)ncnc2cc1O[C@H]1CCOC1 + C=CC(=O)N1CCN(c2nc(=O)n(-c3c(C)ccnc3C(C)C)c3nc(-c4c(O)cccc4F)c(F)cc23)C(C)C1
- IC50 (second compound 0.1 µM): < 0.316 nM
- IC50 (second compound 0.316 µM): < 0.316 nM
- IC50 (second compound 1 µM): < 0.316 nM
- IC50 (second compound 3.16 µM): < 0.316 nM
- IC50 (second compound 10 µM): < 0.316 nM
- viability, T/C [1]: 32.6%
- viability, T/C [2]: 26.2%
- viability, T/C [3]: 23.1%
- viability, T/C [4]: 18.4%
- viability, T/C [5]: 15.4%
- viability, T/C [6]: 26.1%
- viability, T/C [7]: 28.6%
- viability, T/C [8]: 28.2%
- viability, T/C [9]: 26.1%
- viability, T/C [10]: 21.6%
- viability, T/C [11]: 24.1%
- viability, T/C [12]: 28.4%
- viability, T/C [13]: 25.1%
- viability, T/C [14]: 24.7%
- viability, T/C [15]: 24.5%
- viability, T/C [16]: 26.2%
- viability, T/C [17]: 27.5%
- viability, T/C [18]: 24.4%
- viability, T/C [19]: 18.6%
- viability, T/C [20]: 22.9%
- viability, T/C [21]: 26.1%
- viability, T/C [22]: 14.5%
- viability, T/C [23]: 21.8%
- viability, T/C [24]: 22.5%
- viability, T/C [25]: 23%
- viability, T/C [26]: 22.9%
- viability, T/C [27]: 15.8%
- viability, T/C [28]: 13.1%
- viability, T/C [29]: 18.5%
- viability, T/C [30]: 13.3%

SMILES: CC(=O)Nc1cccc(-n2c(=O)n(C3CC3)c(=O)c3c(Nc4ccc(I)cc4F)n(C)c(=O)c(C)c32)c1 + C=CC(=O)N1CCN(c2nc(OCC3CCCN3C)nc3c2CCN(c2cccc4cccc(C)c24)C3)CC1CC#N
- IC50 (second compound 0.0316 µM): < 0.1 nM
- IC50 (second compound 0.1 µM): < 0.1 nM
- IC50 (second compound 0.316 µM): < 0.1 nM
- IC50 (second compound 1 µM): < 0.1 nM
- IC50 (second compound 3.16 µM): < 0.1 nM
- viability, T/C (second compound 0.0316 µM, first compound 0.0001 µM): 36.6%
- viability, T/C (second compound 0.0316 µM, first compound 0.000316 µM): 35.6%
- viability, T/C (second compound 0.0316 µM, first compound 0.001 µM): 34.5%
- viability, T/C (second compound 0.0316 µM, first compound 0.00316 µM): 42%
- viability, T/C (second compound 0.0316 µM, first compound 0.01 µM): 24.2%
- viability, T/C (second compound 0.0316 µM, first compound 0.0316 µM): 7.65%
- viability, T/C (second compound 0.1 µM, first compound 0.0001 µM): 23.8%
- viability, T/C [1]: 32.3%
- viability, T/C [2]: 56.4%
- viability, T/C [3]: 24.6%
- viability, T/C [4]: 12.1%
- viability, T/C [5]: 4.09%
- viability, T/C (second compound 0.316 µM, first compound 0.0001 µM): 30%
- viability, T/C [7]: 33.2%
- viability, T/C [8]: 39.7%
- viability, T/C [9]: 22.1%
- viability, T/C [10]: 19.3%
- viability, T/C [11]: 5.95%
- viability, T/C (second compound 1 µM, first compound 0.0001 µM): 38.2%
- viability, T/C [13]: 37.5%
- viability, T/C [14]: 23.7%
- viability, T/C [15]: 31.7%
- viability, T/C [16]: 15.7%
- viability, T/C [17]: 6.26%
- viability, T/C (second compound 3.16 µM, first compound 0.0001 µM): 30.8%
- viability, T/C [19]: 22.8%
- viability, T/C [20]: 12.8%
- viability, T/C [21]: 12%
- viability, T/C [22]: 2.28%
- viability, T/C [23]: 4.58%

SMILES: CN(C)C/C=C/C(=O)Nc1cc2c(Nc3ccc(F)c(Cl)c3)ncnc2cc1O[C@H]1CCOC1 + CC1OCC2(CCN(c3cnc(Sc4ccnc(N)c4Cl)c(N)n3)CC2)C1N
- IC50 (second compound 0.1 µM): 4.99 nM
- IC50 (second compound 0.316 µM): < 0.316 nM
- IC50 (second compound 1 µM): > 100 nM
- IC50 (second compound 3.16 µM): < 0.316 nM
- IC50 (second compound 10 µM): < 0.316 nM
- viability, T/C [1]: 55.9%
- viability, T/C [2]: 51.9%
- viability, T/C [3]: 50.8%
- viability, T/C [4]: 52.2%
- viability, T/C [5]: 43.3%
- viability, T/C [6]: 49.4%
- viability, T/C [7]: 44.1%
- viability, T/C [8]: 40.5%
- viability, T/C [9]: 43.1%
- viability, T/C [10]: 30.6%
- viability, T/C [11]: 29.9%
- viability, T/C [12]: 32.7%
- viability, T/C [13]: 106%
- viability, T/C [14]: 84.5%
- viability, T/C [15]: 96.2%
- viability, T/C [16]: 78.9%
- viability, T/C [17]: 59%
- viability, T/C [18]: 69.3%
- viability, T/C [19]: 19.9%
- viability, T/C [20]: 15.2%
- viability, T/C [21]: 16.2%
- viability, T/C [22]: 21.2%
- viability, T/C [23]: 18.4%
- viability, T/C [24]: 21.6%
- outcome [25]: inactive
- outcome [26]: inactive
- viability, T/C [27]: 15.9%
- outcome [28]: inactive
- viability, T/C [29]: 13.4%
- viability, T/C [30]: 12.9%
